Experimental data taken from a melting point compilation (Tetko et al.; mined from patent text by program, amines drawn as free bases though some values may be those of a salt).

CCOC(=O)C(C)(C)CCCCCOc1ccc(-c2csc(NC(=O)NC3CCCCC3)n2)cc1 showed a melting point of 106 to 108 °C.
Molecule CSc1ccc(C(=O)O)c(C(F)(F)F)c1F has a melting point of 108 to 109 °C.
For COc1cc(-c2ccc(O)cc2)ccc1C=O, the melting point was 159 to 161 °C.
Work on C#CC1(OCc2cc(F)ccc2F)CCN(C(C)=O)CC1 yielded a melting point of 90 to 93 °C.
With O=C1C=C(Nc2c(Br)cccc2Br)CCN1 the melting point was 240 to 243 °C.
CCN(C(=O)OCc1ccccc1)c1c(OC)cc(C(=O)OC)cc1OC showed a melting point of 85 to 86 °C.
With O=C(Nc1ccc2ccc(Cl)nc2n1)c1cncs1 the melting point was 292 °C.
Molecule CC(C)(C)c1cc(CCc2ccccc2NC(=O)NC2CCN(Cc3ccc(C(F)(F)F)cc3C(F)(F)F)CC2)cc(C(C)(C)C)c1O has a melting point of 156 to 157 °C.
For Cc1nc(S(=O)(=O)CC(=O)OCc2cccs2)nc(C)c1Br, the melting point was 87 to 88 °C.
Nc1cc(Br)c(OC(F)(F)C(F)Cl)cc1[N+](=O)[O-] (stereo not drawn) showed a melting point of 90 °C.
Work on CCOC(=O)c1sc(N2CCN(Cc3ccc(C(F)(F)F)cc3)C2=O)nc1C yielded a melting point of 126 to 127 °C.
CC1(CCN2C(=O)SC(=Cc3ccc(C(F)(F)F)cc3)C2=O)Cn2cc([N+](=O)[O-])nc2O1 (stereo not drawn) gave a melting point of 257 to 258 °C.
For COC(=O)c1ccc2ccc(OC)cc2c1O, the melting point was 80 to 83 °C.
For N#Cc1sc(-c2ccccc2)nc1N, the melting point was 178 to 179 °C.
Molecule COCC(COC)(CN(C)CCP(C)(C)=S)SCc1ccccc1 has a melting point of 74 °C.
In the case of CCCNc1nnc(Cc2c(Cl)cncc2Cl)c2ccc(OC)cc12, the melting point is reported as 222 to 223 °C.
With CS(=O)(=O)N1CCC(C(=O)Nc2ccccc2Oc2ccc(Cl)cc2Cl)CC1 the melting point was 150 to 151 °C.
Molecule N#Cc1c(N2CCc3ccccc3CC2)nc2n(c1=O)CCCC2 has a melting point of 136 to 140 °C.
Molecule CCCn1c(=O)c2[nH]c(/C=C/c3cccnc3)nc2n(CCC)c1=O has a melting point of 265 to 267 °C.
For FC(F)(F)c1cc(-c2ccc(Cl)cc2)nc2c(-c3cccnc3)ncn12, the melting point was 206 °C.
Cc1cc(N)ccc1NC(=O)c1ccc(N)cc1 gave a melting point of 111 to 115 °C.
Work on O=S1(=O)NC(C2CCCCC2)Nc2cc3c(cc21)OCCO3 (stereo not drawn) yielded a melting point of 196 to 200 °C.
For CC(C)(O)C1CCN(Cc2ccc(C#CC(=O)Nc3ccc(-c4ccc(Cl)cc4)cc3)cc2)CC1, the melting point was 194 to 195 °C.
Work on Clc1ncnc2c1ncn2C1CC=CC1 yielded a melting point of 56 to 58 °C.
For Cc1ccc(S(=O)(=O)NC(=N)CCN2CCOC2=O)cc1, the melting point was 129 to 134 °C.
O=C(SCCCC(=O)N1CCC[C@H]1C(=O)O)c1ccccc1 gave a melting point of 159 to 161 °C.
For CC(=O)OCC1OC(N=[N+]=[N-])C(OC(C)=O)C(OC(C)=O)C1OC(C)=O (stereo not drawn), the melting point was 52 to 53 °C.
For COC(=O)C(Cc1ccccc1)Cc1ccc(OCCn2c(=O)sc3cc(C(=O)c4ccccc4)ccc32)cc1 (stereo not drawn), the melting point was 65 to 67 °C.
Nc1nc(Nc2ccccc2)nc(-c2cc(Cl)ccc2Cl)n1 gave a melting point of 180 to 181 °C.
For CCCCCCCCCCCCCCOC(=O)c1ccc(Cl)c(NC(=O)C(C(=O)c2ccccc2)N2C(=O)c3ccccc3C2=O)c1 (stereo not drawn), the melting point was 81 to 82 °C.
In the case of CCC(CC)C(=O)Nc1ccc2ncnc(NC=C(C(=O)OC)C(=O)OC)c2c1, the melting point is reported as 221 to 225 °C.
For CCCCN1CCN(c2nsc3nc4ccccc4n23)CC1, the melting point was 121 to 122 °C.
For O=c1c2c(Cc3ccccc3C(F)(F)F)n[nH]c2c2cccnc2n1-c1cccc(C(F)(F)F)c1, the melting point was 260 to 264 °C.
Molecule NC(=O)Nc1ccccc1S has a melting point of 151 to 153 °C.
With OC(Cn1cncn1)(c1ccc(Cl)cc1)C1(C2CC2)CC1 (stereo not drawn) the melting point was 110 to 112 °C.
Work on COc1cc(Cc2cnc(N)nc2N)cc2c1NCCC2C (stereo not drawn) yielded a melting point of 221 to 223 °C.
In the case of CO[C@@H](Cc1ccc(C#CCOc2ccc(-c3ccccc3)cc2)cc1)C(=O)O, the melting point is reported as 111 to 112 °C.
O=[N+]([O-])c1cc(C(F)(F)F)ccc1NCCCN1CCN(C(c2ccccc2)c2ccccc2)CC1 showed a melting point of 114 °C.
With N#Cc1c(O)c2sccc2[nH]c1=O the melting point was over 300 °C.
For Cn1nc(N)nc1NCCCOc1cccc2c(N3CCCCC3)nccc12, the melting point was 173 °C.
For CSc1cc2c(cc1C(F)(F)F)N(C(=O)Nc1ccc(C(=O)Nc3cccnc3)cc1)CC2, the melting point was over 200 °C.
In the case of COC(=O)NN(C(=O)Cl)c1ccccc1OCCSC, the melting point is reported as 55 to 57 °C.
With O=C1NCC(=O)c2[nH]cnc2N1 the melting point was over 300 °C.
Molecule O=C(Nc1cccnc1NCC(O)c1ccccc1)c1ccc(Cl)cc1 (stereo not drawn) has a melting point of 157 to 159 °C.
Work on CS(=O)CC1=C(c2ccccc2)C(=O)N(C(C)(C)C(=O)Nc2cc(F)ccc2F)CO1 (stereo not drawn) yielded a melting point of 105 to 107 °C.
Molecule CC(=O)C(=Cc1cccc([N+](=O)[O-])c1)P(=O)(OCC(C)(C)C)OCC(C)(C)C has a melting point of 139 to 140 °C.
Molecule Nc1nc2c([nH]c(=S)n2Cc2cccs2)c(=O)[nH]1 has a melting point of over 280 °C.
O=C(O)CCNC(=O)C1=C(C(=O)Nc2ccc(Cl)cc2F)CCCC1 showed a melting point of 158 to 159 °C.
Nc1cc2c(cc1[N+](=O)[O-])CCCCC2 showed a melting point of 137 to 139 °C.
CC(C)(C)c1cc(CN(c2cccnc2)S(=O)(=O)c2ccc([N+](=O)[O-])cc2)cc(C(C)(C)C)c1O showed a melting point of 159 to 160 °C.
Cc1noc(NS(=O)(=O)c2ccc(C(F)(F)F)cc2)c1Br showed a melting point of 155 to 158 °C.
COc1ccc(C(=O)C2=C(O)C(=O)N(c3nnc(C)s3)C2c2ccc(C#N)cc2)cc1 (stereo not drawn) gave a melting point of 185 °C.
Molecule CCCn1c(=O)c2[nH]c(/C=C/c3ccc(C)c(C)c3)nc2n(CCC)c1=O has a melting point of 253 to 254 °C.
O=C(Nc1cc(F)ccc1O)c1cc(Cl)c(O)c(Cl)c1 showed a melting point of 227 to 229 °C.
For COC(=O)C(Sc1ccccc1)c1ccc(I)cc1 (stereo not drawn), the melting point was 62.5 to 65 °C.
For O=C1NC(=O)C(c2ccc(NCc3ccc(Cl)c(Cl)c3)cc2)S1 (stereo not drawn), the melting point was 132 to 133 °C.
COC1=CC2=CCC3C(CCC4(C)C(=O)CC(OC(C)=O)C34)C2(C)CC1 (stereo not drawn) showed a melting point of 209 °C.
Molecule CCc1cc2c(-c3ccccc3OC)c(NC(=O)Nc3cc(C)c(OC(C)=O)c(C)c3)cnc2s1 has a melting point of 217 to 218 °C.
Molecule COc1ccc2c(c1)c(OC(C)C)c(C(N)=O)n2-c1ccccc1 has a melting point of 152 to 154 °C.
Molecule CC(=O)N(C(C)=O)n1c(=O)[nH]c2ccccc2c1=O has a melting point of 210 °C.
Work on O=C(O[C@H]1Cc2c(O)cc(O)cc2O[C@@H]1c1ccc(O)c(O)c1)c1cc(O)c(O)c(O)c1 yielded a melting point of 105 to 107 °C.
O=C1CC(c2cccs2)=Nc2ccc(-c3ccc(=O)[nH]c3)cc2N1 showed a melting point of over 250 °C.
In the case of CN1C(=O)Nc2ccc(-c3cccc(Cl)c3)cc2C1(C)C1CC1 (stereo not drawn), the melting point is reported as 193 to 194 °C.
Molecule CCC(C)(C)c1ccc(S(=O)(=O)N2C(=O)C(NCCN3CCOCC3)(c3ccccc3Cl)c3cc(Cl)ccc32)cc1 (stereo not drawn) has a melting point of 147 °C.
CCCCCc1ccc(C2c3c(C)c(N)c(C)c(C)c3OC2(C)C)cc1 (stereo not drawn) showed a melting point of 67 to 68 °C.
For COc1cc(C)ccc1Oc1ccc(Br)cc1C=O, the melting point was 89 to 90 °C.
Clc1cccc(N2CCN(Cc3ccc4ccccc4c3)CC2)c1 showed a melting point of 114 to 115 °C.
CCOC(=O)CCCCCOc1ccc(C(=O)Nc2ccccc2Sc2ccccc2-c2nnn[nH]2)cc1 gave a melting point of 137 to 138 °C.
In the case of CC1(C)CC(=O)C(C(=O)c2ccc(S(C)(=O)=O)cc2[N+](=O)[O-])C(=O)C1, the melting point is reported as 156 to 158 °C.
Work on COc1cc(C2CCN(CC(N)=O)CC2)ccc1Nc1ncc2ccc(-c3cccc(S(=O)(=O)NC(C)(C)C)c3)n2n1 yielded a melting point of 250 to 252 °C.
In the case of Nc1nc2c(ncn2CCC(CO)CCl)c(=O)[nH]1 (stereo not drawn), the melting point is reported as 273 to 275 °C.
With CCOC(=O)c1ccc(C=C(C)C=O)o1 the melting point was 83 °C.
Cn1nc2c3c(c(Cl)ccc31)C(=O)c1cnccc1-2 gave a melting point of 244 to 245 °C.
Work on CCc1nc(NC(=O)NS(=O)(=O)c2ccccc2OC(F)F)nc(OC)n1 yielded a melting point of 114 to 116 °C.
C=CCOc1cc(NC(=O)OCC)c(F)cc1Br gave a melting point of 66 to 68 °C.
For CN(C(=O)Nc1ccc2ccccc2c1)c1cccc(-c2ccc(CC3SC(=O)NC3=O)cc2)c1 (stereo not drawn), the melting point was 196 °C.
Molecule O=C(O)CN1C(=O)C(=Cc2ccc(Cc3cccnc3)s2)SC1=S has a melting point of 254 to 256 °C.
In the case of CCOC(=O)CCc1c(OCCCCCBr)ccc2ccc(OCC(=O)OCC)cc12, the melting point is reported as 29.5 to 32 °C.
Molecule COc1ccc2c(c1)c(Br)cn2C(=O)OC(C)(C)C has a melting point of 111 to 112 °C.
O=S(=O)(c1ccccc1)C(Cc1ccccc1)c1ccc(C(O)(C(F)(F)F)C(F)(F)F)cc1 (stereo not drawn) showed a melting point of 157 °C.
Work on O=C1Nc2ccccc2N2C(=O)OCC12 (stereo not drawn) yielded a melting point of 230 to 231 °C.
Molecule CC1Cc2cc(F)c(F)cc2C1=O (stereo not drawn) has a melting point of 66 to 68 °C.
Molecule CCCCOc1cc(CCC(=O)O)ccc1-c1cccc(N(C)C(=O)Nc2ccccc2)c1 has a melting point of 134 to 136 °C.
With CN(C)C(=O)CC(=O)c1ccc(C(=O)CC(=O)C(C)(C)C)cc1 the melting point was 159 to 160 °C.
Work on CC(N)C(Cc1ccc(OCc2ccccc2)cc1)CC(O)c1ccccc1F (stereo not drawn) yielded a melting point of 162 to 163 °C.
Work on O=C(O)c1ccccc1Nc1ccc(CCCc2ccc([N+](=O)[O-])cc2)cc1 yielded a melting point of 150 to 153 °C.
In the case of N#CCCNC(=O)c1cccc(-c2ccc3c(c2)C(Oc2ccc(Cl)cc2Cl)CC3)c1 (stereo not drawn), the melting point is reported as 139 to 145 °C.
Clc1ncnc(Cl)c1Cl gave a melting point of 50 to 52 °C.
CCCC(=O)N1CCC(C(=O)OC2c3ccccc3C(=O)N2c2ccc3ccc(Cl)nc3n2)CC1 (stereo not drawn) gave a melting point of 165 °C.
For Cc1cc(C)cc(OCC(O)CO)c1 (stereo not drawn), the melting point was 47 to 49 °C.
For CCn1c(C)nc2cc([N+](=O)[O-])c(Sc3cccc4cnccc34)cc21, the melting point was 226 to 229 °C.
Work on COCCN1Cc2c(cnc3c(NC(=O)c4c(Cl)cccc4Cl)cccc23)C1=O yielded a melting point of 246 °C.
For CN(Cc1ccc(NC(=O)C2=Cc3cc(-c4ccsc4)ccc3OCC2)cc1)C1CCOCC1, the melting point was 194 to 195 °C.
Molecule Cc1ccnc(NC(=O)c2nnc3ccccc3c2O)c1 has a melting point of 339 to 341 °C.
For CCCN1CCCC1CNC(=O)c1cc(S(N)(=O)=O)cc2c1OC(C)C2 (stereo not drawn), the melting point was 177 to 180 °C.
Work on NS(=O)(=O)c1ccc(C2(c3nc4cc(F)ccc4[nH]3)C=C(C(F)(F)F)NN2)cc1 (stereo not drawn) yielded a melting point of 309 to 310 °C.
With Cc1cc(C)nc(NC(=O)C(N)Cc2ccccc2)c1 (stereo not drawn) the melting point was 97 °C.
With CN1CCN(C(=O)Cc2c(-c3ccc(Cl)cc3)nc3ccccn23)CC1 the melting point was 175 °C.
